A short description of data set [1]: Saturation magnetization measurement (magnetic property evaluation device MPMS7). The format is physicochemical. The method, then: The measurement was conducted based on a magnetic property evaluation device MPMS7 manufactured by Kantum.
Data set [2] can be described thus: Particle diameter of single crystal by transmission electron microscope. It is filed as physicochemical. To be noted: single crystal of the salen complex having the highest ferromagnetic property; TEM, 140 samples.
Method: A used device, conditions, and so on are as follows. Device: transmission electron microscope (H-7100FA manufactured by Hitachi) Conditions: acceleration voltage 100 kV Sample adjustment: dispersion method (after the salen complex was ground with a mortar, pure water was added to the ground salen complex, which was then dispersed in a grid by TEM) Grain size distribution measurement software: Image-Pro plus (Media cybermetrics, MD, U.S.A.) Measured target: traced images of the iron-salen complex in TEM photographs Number of samples: 140

In the case of `Oc1ccccc1C=NCCN=Cc1ccccc1O.[Fe+2]` [iron-salen complex, N,N′-bis(salicylidene)ethylenediamine iron(II)], the results for the saturation magnetization in data set [1] (crystals having the highest magnetic property among 5-6 iron-salen complex preparations) and in data set [1] (crystals having the lowest magnetic property among those complexes) were 1.25 emu/g and 0.02 emu/g, respectively. In addition, the average particle diameter in data set [2] stood at 450 nm.
